The NIST ThermoML archive (doi:10.1021/je500886a)
± gives the expanded uncertainty stated by the source.

Experiment: mn = molality of the nth substance listed, in mol/kg
Conditions: 101 kPa, Liquid

OC[C@H]1O[C@@](CO)(O[C@H]2O[C@H](CO)[C@@H](O)[C@H](O)[C@H]2O)[C@@H](O)[C@@H]1O [D-sucrose] + O
Conditions | mass density, 288.15 K [kg/m3] | mass density, 298.15 K [kg/m3] | mass density, 308.15 K [kg/m3] | mass density, 318.15 K [kg/m3] | viscosity, 288.15 K [mPa·s] | viscosity, 298.15 K [mPa·s] | viscosity, 308.15 K [mPa·s] | viscosity, 318.15 K [mPa·s]
m1 = 0.0482 | 1005.4 ± 0.24 | 1003.28 ± 0.24 | 1000.26 ± 0.23 | 996.41 ± 0.23 | – | – | – | –
m1 = 0.05054 | – | – | – | – | 1.198 ± 0.022 | 0.934 ± 0.018 | 0.751 ± 0.015 | 0.621 ± 0.013
m1 = 0.06821 | 1007.96 ± 0.24 | 1005.82 ± 0.24 | 1002.79 ± 0.23 | 998.92 ± 0.23 | – | – | – | –
m1 = 0.06969 | – | – | – | – | 1.221 ± 0.023 | 0.951 ± 0.018 | 0.766 ± 0.015 | 0.632 ± 0.013
m1 = 0.08888 | 1010.58 ± 0.25 | 1008.42 ± 0.24 | 1005.37 ± 0.24 | 1001.49 ± 0.23 | – | – | – | –
m1 = 0.09107 | – | – | – | – | 1.242 ± 0.023 | 0.969 ± 0.018 | 0.78 ± 0.015 | 0.645 ± 0.013
m1 = 0.1095 | 1013.17 ± 0.25 | 1010.99 ± 0.25 | 1007.92 ± 0.24 | 1004.02 ± 0.24 | – | – | – | –
m1 = 0.1098 | – | – | – | – | 1.264 ± 0.023 | 0.984 ± 0.019 | 0.793 ± 0.015 | 0.654 ± 0.013
m1 = 0.1286 | 1015.55 ± 0.26 | 1013.35 ± 0.25 | 1010.27 ± 0.25 | 1006.35 ± 0.24 | – | – | – | –
m1 = 0.1293 | – | – | – | – | 1.286 ± 0.024 | 1.001 ± 0.019 | 0.805 ± 0.016 | 0.666 ± 0.013
m1 = 0.1495 | 1018.13 ± 0.26 | 1015.9 ± 0.26 | 1012.8 ± 0.25 | 1008.87 ± 0.25 | – | – | – | –
m1 = 0.1497 | – | – | – | – | 1.31 ± 0.024 | 1.019 ± 0.019 | 0.819 ± 0.016 | 0.675 ± 0.014

OC[C@@H](O)C(O)[C@H](O)CO [D-arabitol] + O
Conditions | mass density, 288.15 K [kg/m3] | mass density, 298.15 K [kg/m3] | mass density, 308.15 K [kg/m3] | mass density, 318.15 K [kg/m3] | viscosity, 288.15 K [mPa·s] | viscosity, 298.15 K [mPa·s] | viscosity, 308.15 K [mPa·s] | viscosity, 318.15 K [mPa·s]
m1 = 0.05025 | – | – | – | – | 1.162 ± 0.022 | 0.906 ± 0.017 | 0.73 ± 0.014 | 0.604 ± 0.012
m1 = 0.0542 | 1001.87 ± 0.23 | 999.73 ± 0.23 | 996.7 ± 0.23 | 992.83 ± 0.24 | – | – | – | –
m1 = 0.06886 | – | – | – | – | 1.172 ± 0.022 | 0.913 ± 0.017 | 0.735 ± 0.014 | 0.608 ± 0.012
m1 = 0.07304 | 1002.82 ± 0.23 | 1000.65 ± 0.23 | 997.61 ± 0.23 | 993.72 ± 0.24 | – | – | – | –
m1 = 0.08867 | 1003.59 ± 0.24 | 1001.41 ± 0.23 | 998.35 ± 0.23 | 994.45 ± 0.24 | – | – | – | –
m1 = 0.09155 | – | – | – | – | 1.183 ± 0.022 | 0.92 ± 0.018 | 0.74 ± 0.015 | 0.611 ± 0.012
m1 = 0.1053 | 1004.4 ± 0.24 | 1002.21 ± 0.23 | 999.14 ± 0.23 | 995.22 ± 0.24 | – | – | – | –
m1 = 0.1061 | – | – | – | – | 1.189 ± 0.022 | 0.925 ± 0.018 | 0.744 ± 0.015 | 0.613 ± 0.012
m1 = 0.1258 | – | – | – | – | 1.198 ± 0.022 | 0.931 ± 0.018 | 0.748 ± 0.015 | 0.617 ± 0.013
m1 = 0.1323 | 1005.72 ± 0.24 | 1003.5 ± 0.24 | 1000.41 ± 0.23 | 996.46 ± 0.23 | – | – | – | –
m1 = 0.1507 | – | – | – | – | 1.209 ± 0.022 | 0.94 ± 0.018 | 0.754 ± 0.015 | 0.621 ± 0.013
m1 = 0.1512 | 1006.64 ± 0.24 | 1004.39 ± 0.24 | 1001.3 ± 0.23 | 997.33 ± 0.23 | – | – | – | –

OC[C@@H](O)[C@H](O)[C@@H](O)CO [xylitol] + O
Conditions | mass density, 288.15 K [kg/m3] | mass density, 298.15 K [kg/m3] | mass density, 308.15 K [kg/m3] | mass density, 318.15 K [kg/m3] | viscosity, 288.15 K [mPa·s] | viscosity, 298.15 K [mPa·s] | viscosity, 308.15 K [mPa·s] | viscosity, 318.15 K [mPa·s]
m1 = 0.04981 | – | – | – | – | 1.164 ± 0.022 | 0.909 ± 0.017 | 0.733 ± 0.014 | 0.607 ± 0.012
m1 = 0.0542 | 1001.89 ± 0.23 | 999.75 ± 0.23 | 996.72 ± 0.23 | 992.86 ± 0.24 | – | – | – | –
m1 = 0.06784 | – | – | – | – | 1.173 ± 0.022 | 0.915 ± 0.017 | 0.738 ± 0.015 | 0.611 ± 0.012
m1 = 0.07245 | 1002.81 ± 0.23 | 1000.65 ± 0.23 | 997.6 ± 0.23 | 993.73 ± 0.24 | – | – | – | –
m1 = 0.0852 | 1003.45 ± 0.24 | 1001.27 ± 0.23 | 998.22 ± 0.23 | 994.33 ± 0.24 | – | – | – | –
m1 = 0.08897 | – | – | – | – | 1.183 ± 0.022 | 0.922 ± 0.018 | 0.743 ± 0.015 | 0.615 ± 0.013
m1 = 0.1059 | – | – | – | – | 1.191 ± 0.022 | 0.93 ± 0.018 | 0.747 ± 0.015 | 0.619 ± 0.013
m1 = 0.1095 | 1004.66 ± 0.24 | 1002.44 ± 0.23 | 999.37 ± 0.23 | 995.46 ± 0.24 | – | – | – | –
m1 = 0.1313 | – | – | – | – | 1.204 ± 0.022 | 0.939 ± 0.018 | 0.755 ± 0.015 | 0.624 ± 0.013
m1 = 0.1314 | 1005.74 ± 0.24 | 1003.49 ± 0.24 | 1000.41 ± 0.23 | 996.48 ± 0.23 | – | – | – | –
m1 = 0.1501 | – | – | – | – | 1.212 ± 0.022 | 0.945 ± 0.018 | 0.76 ± 0.015 | 0.628 ± 0.013
m1 = 0.1527 | 1006.77 ± 0.24 | 1004.5 ± 0.24 | 1001.41 ± 0.23 | 997.46 ± 0.23 | – | – | – | –
